**Q.** What does the source list for Cc1cccc(Nc2ccccc2C(=O)O)c1C?
**A.** solubility (mole fraction) (in DMAc, 298 K): 0.122; solubility (mole fraction) (in DMAc, 303 K): 0.138; solubility (mole fraction) (in DMAc, 308 K): 0.153; solubility (mole fraction) (in DMAc, 313 K): 0.165; solubility (mole fraction) (in DMAc, 318 K): 0.175; solubility (mole fraction) (in DMAc, 323 K): 0.19; solubility (mole fraction) (in DMF, 298 K): 0.0171; solubility (mole fraction) (in DMF, 303 K): 0.0208; solubility (mole fraction) (in DMF, 308 K): 0.0275; solubility (mole fraction) (in DMF, 313 K): 0.0327; solubility (mole fraction) (in DMF, 318 K): 0.0391; solubility (mole fraction) (in DMF, 323 K): 0.0551; solubility (mole fraction) (in acetone, 298 K): 0.0054; solubility (mole fraction) (in acetone, 303 K): 0.0055; solubility (mole fraction) (in acetone, 308 K): 0.0065; solubility (mole fraction) (in acetone, 313 K): 0.007; solubility (mole fraction) (in acetone, 318 K): 0.0084; solubility (mole fraction) (in acetone, 323 K): 0.0098; solubility (mole fraction) (in cyclohexane, 298 K): 0.0009; solubility (mole fraction) (in cyclohexane, 303 K): 0.0009; solubility (mole fraction) (in cyclohexane, 308 K): 0.0011; solubility (mole fraction) (in cyclohexane, 313 K): 0.0012; solubility (mole fraction) (in cyclohexane, 318 K): 0.0014; solubility (mole fraction) (in cyclohexane, 323 K): 0.0016; solubility (mole fraction) (in ethanol, 298 K): 0.0019; solubility (mole fraction) (in ethanol, 303 K): 0.002; solubility (mole fraction) (in ethanol, 308 K): 0.0024; solubility (mole fraction) (in ethanol, 313 K): 0.0032; solubility (mole fraction) (in ethanol, 318 K): 0.0037; solubility (mole fraction) (in ethanol, 323 K): 0.0042; solubility (mole fraction) (in ethyl acetate, 298 K): 0.0039; solubility (mole fraction) (in ethyl acetate, 303 K): 0.0045; solubility (mole fraction) (in ethyl acetate, 308 K): 0.0055; solubility (mole fraction) (in ethyl acetate, 313 K): 0.0071; solubility (mole fraction) (in ethyl acetate, 318 K): 0.0079; solubility (mole fraction) (in ethyl acetate, 323 K): 0.0096; solubility (mole fraction) (in isopropanol, 298 K): 0.002; solubility (mole fraction) (in isopropanol, 303 K): 0.0024; solubility (mole fraction) (in isopropanol, 308 K): 0.0026; solubility (mole fraction) (in isopropanol, 313 K): 0.0033; solubility (mole fraction) (in isopropanol, 318 K): 0.004; solubility (mole fraction) (in isopropanol, 323 K): 0.0053; solubility (mole fraction) (in n-heptane, 298 K): 0.0011; solubility (mole fraction) (in n-heptane, 303 K): 0.0013; solubility (mole fraction) (in n-heptane, 308 K): 0.0015; solubility (mole fraction) (in n-heptane, 313 K): 0.0017; solubility (mole fraction) (in n-heptane, 318 K): 0.0018; solubility (mole fraction) (in n-heptane, 323 K): 0.0022; solubility (mole fraction) (in n-hexane, 298 K): 0.0013; solubility (mole fraction) (in n-hexane, 303 K): 0.0014; solubility (mole fraction) (in n-hexane, 308 K): 0.0016; solubility (mole fraction) (in n-hexane, 313 K): 0.0018; solubility (mole fraction) (in n-hexane, 318 K): 0.002; solubility (mole fraction) (in n-hexane, 323 K): 0.0024; solubility (mole fraction) (in water, 313 K): 1e-05; solubility (mole fraction) (in water, 318 K): 3e-05; solubility (mole fraction) (in water, 323 K): 5e-05

From BigSolDB 2.1
